# Measurements taken from patent US6162823A, “LTA4 hydrolase inhibitors” (G.D. Searle & Co., priority 1997, dated 2000).
# Counter-ions that a name gives are not always drawn. Like-named read-outs stand apart in the source and are kept apart here.
# Key:
# [1] = molecular target: T1, recombinant human LTA4 hydrolase (rhLTAH) (Homo sapiens, UniProt P09960); assay: Recombinant Human LTA Hydrolase Assay for LTA Hydrolase Inhibitor Activity; format: biochemical; conditions: 10 min preincubation with 250 ng enzyme, LTA4 substrate, room temperature, pH 7.4
# T1 construct: made in house; host or cells: Spodoptera frugiperda Sf-9 cells (baculovirus)
# T1 sequence (P09960 1-611): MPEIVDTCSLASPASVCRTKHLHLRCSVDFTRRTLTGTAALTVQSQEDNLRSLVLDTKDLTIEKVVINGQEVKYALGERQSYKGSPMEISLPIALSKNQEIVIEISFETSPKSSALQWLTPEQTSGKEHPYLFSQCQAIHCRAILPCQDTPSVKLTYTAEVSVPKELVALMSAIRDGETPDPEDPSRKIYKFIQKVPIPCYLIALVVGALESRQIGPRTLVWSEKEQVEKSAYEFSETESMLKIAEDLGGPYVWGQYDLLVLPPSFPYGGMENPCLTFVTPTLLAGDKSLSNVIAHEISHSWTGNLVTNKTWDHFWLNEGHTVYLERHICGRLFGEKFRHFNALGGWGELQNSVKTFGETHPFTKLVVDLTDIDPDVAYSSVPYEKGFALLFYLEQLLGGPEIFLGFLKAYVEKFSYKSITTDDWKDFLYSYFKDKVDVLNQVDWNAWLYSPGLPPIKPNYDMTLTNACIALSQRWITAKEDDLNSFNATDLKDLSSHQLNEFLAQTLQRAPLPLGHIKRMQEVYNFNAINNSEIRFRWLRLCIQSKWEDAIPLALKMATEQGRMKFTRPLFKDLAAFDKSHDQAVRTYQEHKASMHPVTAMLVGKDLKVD
# Procedure: Compounds of the present invention were tested for LTA hydrolase inhibitor activity against recombinant human LTA hydrolase (rhLTAH).
# One or more predetermined amounts of a compound of the invention were incubated in assay buffer (0.1 M potassium phosphate, 5 mg/ml fatty acid free BSA, 10% DMSO, pH 7.4) for 10 minutes at room temperature with 250 ng of recombinant hLTA4 H to allow binding, if any, between the enzyme and inhibitor. […] LTA4 (free acid) was thawed and diluted in assay buffer (minus DMSO) to a concentration of 350 ng/ml and 25 μl (8ng) of LTA4 substrate was added to the reaction mixture (total volume of reaction mixture=200 μl at time zero. Each reaction was carried out at room temperature for 10 minutes. The reaction was stopped by diluting 25 μl of the reaction mixture with 500 μl of the assay buffer without DMSO. LTA4 was quantified in the diluted sample by a commercially available enzyme-linked immunoassay [Caymen Chemical Col. Ann Arbor, Mich.] using the method recommended in the manufacturer's instructions and compared to the amount of LTA4 produced in a negative control (i.e., essentially identical conditions except without addition of an inhibitor compound). The IC50 was routinely calculated from the data produced.
# [2] = test system: LTB4 production by calcium ionophore stimulated mouse blood; assay: Murine ex vivo LTB4 inhibition (calcium ionophore stimulated mouse blood after oral dosing); format: in vivo; conditions: for inhibition at 10 mg/kg: read-out: Murine Ex Vivo LTB4 Inhibition, % I LTB4 at 1 hour after administration
# Procedure: The compounds were administered by oral garage to adult male outbred mice weighing approximately 20-30 gm at a dose of 10 mg/kg body weight. […] The mixture was incubated for 10 minutes at 37° C. in a humidified incubator. The reaction was terminated by centrifugation (833 g. 10 minutes at 4° C.). Supernatant were analyzed for LTB4 and thromboxane by commercially available enzyme-linked immunoassays [Caymen Chemical Co., Ann Arbor, Mich.] in accordance with the manufacturer's instructions. The percent inhibition was determined by comparison to animals treated identically except that the solution administered by oral gavage was devoid of inhibitor compound.
# [3] = test system: calcium ionophore-induced LTB4 production in human blood; assay: Inhibition of calcium ionophore-induced LTB4 production in human blood (HWB); format: cell-based; conditions: read-out: Inhibition of Calcium Ionophore-induced LTB4 Production in Human Blood (HWB) IC50
# Procedure: LTB4 and Thromboxane Production by Calcium Ionophore Stimulated Human Blood for LTB4 Hydrolase Inhibitor Activity
# Human blood, collected in heparin-containing Vacutainer tubes, was diluted 1:4 with RPMI-1640 media and 200 μl of the diluted blood was added into each of a 96-well microtiter plate. […] After incubating for 15 minutes at 37° C. in a humidified incubator, calcium ionophore A13187 (Sigma Chemical Co., St. Louis, Mo.) was added to a final concentration of 20 mcg/ml and the incubation continued under the same conditions for an additional 10 minutes to allow LTB4 formation. The reaction was terminated by centrifugation (833 g, 10 minutes at 4° C.) and supernatant were analyzed for LTB4 and thromboxane by commercially available enzyme-linked immunoassays (Caymen Chemical Co., Ann Arbor, Mich.) according to the manufacturer's instructions. The IC50 of each test compound was determined from the amount of inhibition of LTB4 production as compared to an essentially identical assay in which no inhibitor compound was present.
# [4] = test system: LTA4 hydrolase; conditions: cited from earlier work
# [5] = mouse, oral gavage, 10 mg/kg (* indicates 50 mg/kg), 1 hour after administration, ionophore A23187 20 mcg/ml
# [6] = human whole blood diluted 1:4, 15 min preincubation at 37° C., ionophore 20 mcg/ml, 10 min
Compound,IC50 [1] [nM],"IC50 [3, 6] [nM]","inhibition at 10 mg/kg [2, 5] [%]",LTA4 hydrolase inhibitory activity [4],"Murine Ex Vivo LTB4 Inhibition, % I LTB4 at 1 hour after administration [2, 5] [%]","inhibition at 10 mg/kg ([2]; Mus musculus, po, 1 h) [%]",IC50 ([3]; Homo sapiens) [nM]
CC(C)N(CCCOc1ccc(Cc2ccsc2)cc1)CCC(=O)NS(C)(=O)=O [Example 16],450,200,85,,,,
CN(CCCOc1ccc(Cc2cccs2)cc1)CCC(=O)NS(=O)(=O)c1ccccc1 [Example 9],< 0.5,79,87,,,,
CC(C)C[C@H](NC(=O)[C@@H](O)[C@H](N)Cc1ccccc1)C(=O)O [bestatin],,,,exhibit LTA4 hydrolase inhibitory activity,,,
"CCN(CCCOc1ccc(Cc2ccsc2)cc1)CCC(=O)NS(=O)(=O)c1ccccc1 [Example 14, monohydrate]",11,82,87,,,,
C[C@H](CS)C(=O)N1CCC[C@H]1C(=O)O [captopril],,,,exhibit LTA4 hydrolase inhibitory activity,,,
"CC(C)N(CCCOc1ccc(Cc2cccs2)cc1)CCC(=O)NS(=O)(=O)c1ccccc1 [Example 13, 3-[(1-methylethyl)[3-[4-[(2-thienyl)methyl-]phenoxy]propyl]amino]-N-(phenylsulfonyl)-propanamide, monohydrochloride]",2.3,40,,,,,
"CN(CCCOc1ccc(Cc2ccsc2)cc1)CCC(=O)NS(=O)(=O)c1ccccc1 [Example 17, monohydrochloride]",0.5,130,93,,,,
"CCN(CCCOc1ccc(Cc2cccs2)cc1)CCC(=O)NS(C)(=O)=O [Example 11, 3-[Ethyl[3-[4-[(2-thienyl)methyl]phenoxy]propyl]-amino]-N-(methylsulfonyl)propanamide monohydrochloride]",33,66,86,,,,
"CN(CCCOc1ccc(Cc2cccs2)cc1)CCC(=O)NS(C)(=O)=O [Example 10, N-(Methylsulfonyl)-3-[methyl[3-[4-[(2-thienyl)-methyl]phenoxy]propyl]amino]propanamide]",0.5,61,93,,,,
"CCN(CCCOc1ccc(Cc2ccsc2)cc1)CCC(=O)NS(C)(=O)=O [Example 15, 3-[Ethyl[3-[4-[(3-thienyl)methyl]phenoxy]propyl]-amino]-N-(methylsulfonyl)propanamide monohydrochloride]",,230,79,,,,
CC(C)N(CCCOc1ccc(Cc2ccccc2)cc1)CCC(=O)NS(C)(=O)=O [Example 27],47,100,,,44,,
CC(C)N(CCCOc1ccc(Cc2ccccc2)cc1)CCC(=O)NS(C)(=O)=O [Example 26],160,220,81,,,,
CN(CCCOc1ccc(Cc2ccccc2)cc1)CCC(=O)NS(=O)(=O)c1ccccc1 [Example 22],1,,,,,94,75
N-(methylsulfonyl)-3-[propyl[3-[4-[(3-thienyl)methyl]phenoxy]propyl]-amino]propanamide [Example 20],150,150,,,56,,
"CC(C)N(CCCOc1ccc(Cc2cccs2)cc1)CCC(=O)NS(C)(=O)=O [Example 12, 3-[(1-methylethyl)[3-[4-[(2-thienyl)methyl-]phenoxy]propyl]-amino]-N-(methylsulfonyl)-propanamide monohydrochloride]",12,80,68,,,,
N-(phenylsulfonyl)-3-[propyl[3-[4-[(3-thienyl)methyl]phenoxy]propyl]-amino]propanamide monohydrochloride [Example 19],90,75,,,45,,

# More lines, main results first:
IC50 [1] [nM],"IC50 [3, 6] [nM]",Compound,"inhibition at 10 mg/kg [2, 5] [%]",LTA4 hydrolase inhibitory activity [4],"Murine Ex Vivo LTB4 Inhibition, % I LTB4 at 1 hour after administration [2, 5] [%]","inhibition at 10 mg/kg ([2]; Mus musculus, po, 1 h) [%]",IC50 ([3]; Homo sapiens) [nM]
100,110,CC(C)(C)N(CCCOc1ccc(Cc2ccccc2)cc1)CCC(=O)NS(C)(=O)=O [Example 25],45,,,,
20,190,"CN(CCCOc1ccc(Cc2ccsc2)cc1)CCC(=O)NS(C)(=O)=O [Example 18, N-(methylsulfonyl)-3-[methyl[3-[4-[(3-thienyl)methyl]phenoxy]propyl]-amino]propanamide]",94,,,,
79,130,CCN(CCCOc1ccc(Cc2ccccc2)cc1)CCC(=O)NS(=O)(=O)c1ccccc1 [Example 29],65,,,,
90,150,CC(C)N(CCCOc1ccc(Cc2ccsc2)cc1)CCC(=O)NS(=O)(=O)c1ccccc1 [Example 21],60,,,,
2160,2710,CS(=O)(=O)NC(=O)CCN(CCCOc1ccc(Cc2ccccc2)cc1)C1CC1 [Example 24],,,,,
540,180,CCN(CCCOc1ccc(Cc2ccccc2)cc1)CCC(=O)NS(C)(=O)=O [Example 28],89,,,,
1.3,70,CN(CCCOc1ccc(Cc2ccccc2)cc1)CCC(=O)NS(C)(=O)=O [Example 23],100,,,,
